From PubChem BioAssay AID1996
Converted amounts (≈) assume the structure as drawn.

Conditions: buffer; pH 7.4; 200.0 µM

Structure (SMILES)	solubility kinetic
COC(=O)/C=C1\SC(=NC(=O)c2ccc(OC)cc2)NC1=O	12 µg/mL (≈ 37.5 µM)
O=C(Nc1cccc(-c2cscn2)c1)C1CCN(Cc2ccccn2)CC1	> 56.8 µg/mL
N#C/C(=C(/O)c1ccc(Cl)cc1)c1nc2ccccc2[nH]1	< 0.2 µg/mL
CC(CCc1ccccc1)NC(=O)CCC(=O)N1CCC(C(=O)O)CC1 (centres undefined)	> 54.1 µg/mL
N#CC(CCN1CCOCC1)(c1ccccc1)c1ccccc1	43.1 µg/mL (≈ 141 µM)
COc1cc(OC)c(C(=O)NCc2cccnc2)cc1OC	42.9 µg/mL (≈ 142 µM)
Cc1cccc(-c2nnc(SCC(=O)N3CCCC3)o2)c1	> 45.5 µg/mL
COc1cc(OC)c(C(=O)OCC(=O)NC2CCCCCCC2)cc1OC	> 56.9 µg/mL
CC(=O)Oc1ccc2c(=O)oc(-c3ccccc3C)nc2c1	8.4 µg/mL (≈ 28.4 µM)
Cc1cc(NC(=O)c2cccc([N+](=O)[O-])c2)no1	< 0.2 µg/mL
N#Cc1nc(-c2cccc(Cl)c2)oc1N1CCC(C(N)=O)CC1	1.8 µg/mL (≈ 5.44 µM)
Cc1ccc(Cl)cc1NC(=S)NCCCSC1CCCCC1	2.5 µg/mL (≈ 7 µM)
CN1CC(C(=O)c2ccc(F)cc2)C(c2c(F)cccc2Cl)C1 (centres undefined)	40.9 µg/mL (≈ 122 µM)
O=C(CCCNC(=O)c1ccc(Cl)cc1)Nc1nccs1	10.3 µg/mL (≈ 31.8 µM)
O=Cc1c(NCc2ccccc2F)c2ccccc2[nH]c1=O	4.2 µg/mL (≈ 14.2 µM)
Cc1ccc(Nc2nnc(SC(C)C(=O)NCC3CCCO3)s2)cc1 (centres undefined)	> 56.8 µg/mL
COc1ccc(C(=O)N(c2ccccn2)C2CCCCC2)c(OC)c1	49.9 µg/mL (≈ 147 µM)
O=C(O)/C=C/C(=O)Nc1ccc(S(=O)(=O)Nc2nccs2)cc1	> 53 µg/mL
CC1(C)CC(=O)C(=CN2CCOCC2)C(=O)C1	> 35.6 µg/mL
COCCNc1nc2c(c(=O)n(Cc3ccccc3F)c(=O)n2C)n1C	8.5 µg/mL (≈ 23.5 µM)
Cc1nc(Nc2ccccc2)sc1C(=O)c1ccccc1	2.1 µg/mL (≈ 7.13 µM)
CCN1CCN(c2nc(-c3ccccc3)c3ccccc3n2)CC1	46.1 µg/mL (≈ 145 µM)
CCOc1ccc(N=Cc2c(O)n(-c3ccc(C)c(C)c3)c(=O)[nH]c2=O)cc1	2.9 µg/mL (≈ 7.64 µM)
O=C(O)CSCC(=O)N1CCCCC1	> 32.6 µg/mL

Structure (SMILES)	solubility kinetic
COc1ccc(C(=O)/C=C/Nc2ccc(S(N)(=O)=O)cc2)cc1OC	7.9 µg/mL (≈ 21.8 µM)
CCCC(C)NC(=O)C1c2ccccc2Oc2ccccc21 (centres undefined)	1.2 µg/mL (≈ 4.06 µM)
CCOC(=O)CCCNC(=O)CCNC(=O)c1ccc(OCC(C)C)cc1	> 56.8 µg/mL
O=S(=O)(c1ccc(F)cc1)N1CCN(c2ncccn2)CC1	8.3 µg/mL (≈ 25.7 µM)
Cc1cc2nc3c(nc2cc1C)C(O)=C3O	27.6 µg/mL (≈ 129 µM)
O=C(OCCC1Oc2cccnc2NC1=O)c1ccc(Cl)cc1 (centres undefined)	4 µg/mL (≈ 12 µM)
COc1ccccc1C(=O)Nc1cccc2c1CCCC2	< 0.6 µg/mL
Cc1ccc(CSCc2ccc(C(=O)NC3CCCC3)o2)cc1	1.9 µg/mL (≈ 5.77 µM)
N#Cc1ccccc1CN1C(=O)NC2(CCCCCC2)C1=O	> 44.6 µg/mL
O=C(/C=C/c1ccc(-c2cccc([N+](=O)[O-])c2)o1)N1CCOCC1	3.9 µg/mL (≈ 11.9 µM)
Cc1ccc2nc(-c3ccncc3)[nH]c2c1	28.1 µg/mL (≈ 134 µM)
COc1cc(OC)c(C(=O)OCC(=O)NC23CC4CC(CC(C4)C2)C3)cc1OC	3.9 µg/mL (≈ 9.67 µM)
CC(=O)c1cccc(NC(=O)CCNC(=O)c2ccccc2Cl)c1	> 51.7 µg/mL
CC1CCCCC1NC(=O)COC(=O)/C=C/c1ccco1 (centres undefined)	22.6 µg/mL (≈ 77.6 µM)
CCOc1ccccc1C(=O)Nc1cccc2cccnc12	< 0.3 µg/mL
Cn1cnc2c1c(=O)n(Cc1cccc(Cl)c1)c(=O)n2C	> 45.7 µg/mL
Nc1ccc(Nc2nc3ccccc3[nH]2)cc1	25.8 µg/mL (≈ 115 µM)
COc1ccc(C(=O)NCCCOc2cccc(NC(C)=O)c2)cc1	> 51.4 µg/mL
COc1ccc2c(CC(=O)Nc3nccs3)coc2c1	7 µg/mL (≈ 24.3 µM)
COc1cccc(CC(=O)Nc2ccc3c(c2)CCC3)c1	8.3 µg/mL (≈ 29.5 µM)
COc1cccc(Oc2ccc(C(F)(F)F)cc2NC(=O)C2=COCCO2)c1	1.5 µg/mL (≈ 3.79 µM)
CCOc1ccc(CC(=O)Nc2nccs2)cc1	7.7 µg/mL (≈ 29.4 µM)
CCOCCn1c2ccccc2c2nc3ccccc3nc21	4.1 µg/mL (≈ 14.1 µM)
O=C(CCc1ccccc1)N1CCN(c2ccc(F)cc2)CC1	> 46.9 µg/mL

Structure (SMILES)	solubility kinetic
O=C(NC12CC3CC(CC(C3)C1)C2)N1CCN(c2ccccc2)CC1	12.7 µg/mL (≈ 37.4 µM)
COc1cc2ccccc2cc1C(=O)NC1CCCCC1	25.3 µg/mL (≈ 89.3 µM)
O=[N+]([O-])c1ccc(NCc2ccccc2N2CCC(CO)CC2)nc1	12.4 µg/mL (≈ 36.2 µM)
Cc1cccc(C2=N/C(=C\c3cccs3)C(=O)O2)c1	4 µg/mL (≈ 14.9 µM)
O=C(COC(=O)c1ccc[nH]c1=O)Nc1ccc(N2CCCCC2)cc1	> 53.3 µg/mL
COc1ccc(C2(C(=O)NCCc3ccccc3)CCCC2)cc1	31.1 µg/mL (≈ 96.2 µM)
COC(=O)c1ccc(COc2ncnc3ccccc23)o1	> 42.6 µg/mL
CCOC(=O)Cc1csc(NC(=O)Cc2ccccc2)n1	> 45.7 µg/mL
O=C(Nc1nc(-c2ccc(F)c(F)c2)cs1)Nc1ccc(F)cc1F	< 0.3 µg/mL
C=CCN1C(=O)CSC1=Nc1ccc(NC(C)=O)cc1	42 µg/mL (≈ 145 µM)
Cn1nccc1NC(=O)Nc1ccc(OC(F)(F)F)cc1	> 45 µg/mL
O=c1[nH]c(-c2ccccc2)cnc1-c1ccccc1	0.4 µg/mL (≈ 1.61 µM)
Cc1nc2cc(C(=O)N3CCN(C)CC3)ccc2n1C	40.2 µg/mL (≈ 148 µM)
COc1ccc2c(c1)CCc1c-2nc2ccccc2c1N1CCOCC1	5.5 µg/mL (≈ 15.9 µM)
COc1ccc(NC(=O)CNc2ccccc2C(C)=O)cc1S(=O)(=O)N1CCOCC1	63.9 µg/mL (≈ 143 µM)
CC(C)(C)OC(=O)CN1c2cccc3cccc(c23)S1(=O)=O	14.9 µg/mL (≈ 46.7 µM)
NCCc1c[nH]c2ccc(OCc3ccccc3)cc12	7.8 µg/mL (≈ 29.3 µM)
Cc1ccc(C)c2sc(N)nc12	> 26.7 µg/mL
C/C(=N\N=C(N)N)c1ccccc1	> 26.4 µg/mL
Cc1cc(OC2CCCCC2)nc(NCc2ccccc2)n1	0.3 µg/mL (≈ 1.01 µM)
O=C(NC1CC2CCCC(C1)N2C(=O)Nc1ccccc1)C1CC1 (centres undefined)	4.2 µg/mL (≈ 12.8 µM)
COCCNc1oc(-c2ccccc2Cl)nc1S(=O)(=O)c1ccc(C)cc1	44.1 µg/mL (≈ 108 µM)
CC(C)(C)NC(=O)/C(=C/c1cccnc1)NC(=O)c1ccco1	> 47 µg/mL
COc1ccc(C(=O)O)cc1S(=O)(=O)N1CCN(Cc2ccc3c(c2)OCO3)CC1	> 65.2 µg/mL

Structure (SMILES)	solubility kinetic
COC(=O)c1ccc2c(c1)NC(=O)c1ccccc1S2	3.9 µg/mL (≈ 13.7 µM)
CCn1cc(C=C2C(=O)NC(=O)NC2=O)c2ccccc21	1.8 µg/mL (≈ 6.35 µM)
CC(=O)c1cccc(N=Cc2c(O)c3ccccc3oc2=O)c1	11.2 µg/mL (≈ 36.4 µM)
O=[N+]([O-])c1ncccc1OCc1ccccc1Br	5.7 µg/mL (≈ 18.4 µM)
COc1ccc(NC(=O)c2sc3nc(C)cc(C)c3c2N)cc1	< 0.2 µg/mL
O=S(=O)(c1ccc(Br)cc1)N1CCCc2ccccc21	1.6 µg/mL (≈ 4.54 µM)
Cc1ccc(NC(=O)N(CCC(=O)O)Cc2ccccc2)cc1	> 46.9 µg/mL
O=C(NCCCO)/C(=C\c1ccco1)NC(=O)c1ccco1	> 45.6 µg/mL
O=C(NCCCN1CCCC1=O)Nc1ccc(Cl)cc1Cl	> 49.5 µg/mL
CC(C)CN1C2CCCC1CC(NC(=S)NCc1ccco1)C2 (centres undefined)	> 50.3 µg/mL
Clc1ccccc1OCCCCN1CCNCC1.O=C(O)C(=O)O	> 53.8 µg/mL
C=C(C)n1c(=O)n(Cc2ccccc2C)c2ccccc21	16 µg/mL (≈ 57.5 µM)
Cc1ccc(NC(=O)c2sccc2C)nc1	34.8 µg/mL (≈ 150 µM)
Cc1ccc(F)c(NC(=O)c2c(-c3ccccc3)noc2C)c1	2.2 µg/mL (≈ 7.09 µM)
O=C(CCc1ccccc1)Nc1ccc2c(c1)OCO2	26.6 µg/mL (≈ 98.8 µM)
CCOC(=O)CNC(=O)C12CC3CC(CC(C3)C1)C2	37.8 µg/mL (≈ 142 µM)
CC[n+]1oc(-c2ccccc2)cc1C.F[B-](F)(F)F	37.4 µg/mL
CCOC(=O)C1=CCN(Cc2ccccc2)CC1.Cl	37.8 µg/mL
O=C(O)C1Cc2ccccc2CN1C(=O)c1ccco1 (centres undefined)	30.7 µg/mL (≈ 113 µM)
Cc1ccc(C(=O)NCCCNC(=O)c2ccco2)cc1C	43.4 µg/mL (≈ 144 µM)
O=c1[nH]c(/C=C/c2ccccc2Cl)c([N+](=O)[O-])c(=O)[nH]1	> 44.1 µg/mL
CC(C)c1nc2oc3c(NCCO)ncnc3c2c2c1COC(C)(C)C2	48.9 µg/mL (≈ 137 µM)
NC(=O)c1ccc(/C=N/O)[n+](Cc2ccccc2)c1.[Br-]	33.9 µg/mL
Cc1ccc2c(CN(C)Cc3ccccc3)cc(=O)oc2c1C	1.7 µg/mL (≈ 5.53 µM)

Structure (SMILES)	solubility kinetic
CC(=O)NC1C(=O)N=C(SCC(=O)Nc2c(C)cccc2C)NC1=O (centres undefined)	> 54.4 µg/mL
COc1ccc(Cn2c(=O)cc(C)[nH]c2=S)cc1	20.2 µg/mL (≈ 77 µM)
S=c1[nH]c2ccc(Cc3ccc4[nH]c(=S)[nH]c4c3)cc2[nH]1	1.7 µg/mL (≈ 5.44 µM)
COc1ccc(CCNC(=O)c2c(C)nc3ccccn23)cc1	43 µg/mL (≈ 139 µM)
O=C(CSC1=Nc2ccccc2C2CC=NN12)NCc1ccco1 (centres undefined)	> 51.1 µg/mL
Cc1cc(C)c2c(n1)sc1c(=O)n(CC(=O)c3ccccc3)cnc12	< 0.2 µg/mL
CCOC(=O)Cc1csc(NC(=O)CCC(=O)O)n1	> 42.9 µg/mL
COc1cccc(N2CCN(C(=O)c3cc4ccc(OC)cc4[nH]3)CC2)c1	1.6 µg/mL (≈ 4.38 µM)
CC(C)(C)NC(=O)CSc1ncccc1-c1nc2ccccc2[nH]1	3.3 µg/mL (≈ 9.69 µM)
CC(Cc1ccccc1)NC(=O)c1cc([N+](=O)[O-])ccc1Cl (centres undefined)	10 µg/mL (≈ 31.4 µM)
CC1CCCC(NC(=O)Cn2cc(Br)ccc2=O)C1C (centres undefined)	> 51.2 µg/mL
Cc1ccc(/C=C/C(=O)OCC(=O)NC(=O)NCc2ccccc2)cc1	3.8 µg/mL (≈ 10.8 µM)
Cc1cccc(-c2nnc(SCC(=O)NC3CC3)n2C)c1	> 45.4 µg/mL
COc1ccccc1NC(=S)NC1CC2CCC1C2 (centres undefined)	> 41.5 µg/mL
COc1ccc(CNC(=O)c2cc3cc(OC)ccc3oc2=O)cc1	< 0.7 µg/mL
COc1ccc(NC(=O)CNC(=O)c2c(C)nn(C)c2Cl)cc1	> 50.5 µg/mL
CN(C(=O)Nc1ccc(C(C)(C)C)cc1)C1CCCCC1	< 0.3 µg/mL
CC(=O)c1ccc(NC(=O)CCCC(=O)c2ccccc2)cc1	3.6 µg/mL (≈ 11.6 µM)
COc1ccccc1C(=O)NC(C)c1ccc(-n2ccnc2)cc1 (centres undefined)	> 48.2 µg/mL
CN(CC(=O)Nc1ccc(Cl)cc1)C1CCCCC1	36 µg/mL (≈ 128 µM)
CC(=O)Nc1sc2c(c1C(N)=O)CCN(Cc1ccccc1)C2.Cl	> 54.9 µg/mL
O=C(CN1CCCCCC1)Nc1cc([N+](=O)[O-])ccc1Cl	22.6 µg/mL (≈ 72.5 µM)
COc1ccc(C(=O)NCCNc2ccc([N+](=O)[O-])cc2)cc1OC	1.7 µg/mL (≈ 4.92 µM)
